row,Structure (SMILES),melting point [°C]
1,CC(=O)Nc1nc(NCCSC(C)=O)n[nH]1,127 to 130
2,CS(=O)(=O)c1ccc(C(CC2CCCC2)c2nc(Cl)c(C(=O)C3CC3)[nH]2)cc1 (stereo unspecified),95 to 97
3,CCCCc1n[nH]c(CCCC)n1,50.5 to 51.5
4,COC(=O)C1C(c2ccc(F)c(C)c2)=CC2(CC1(C)C)SCCCS2 (stereo unspecified),100 to 101
5,CCCCNS(=O)(=O)CC(O)C(O)C(CC1CCCCC1)NC(=O)C(Cc1c[nH]cn1)NS(=O)(=O)CCc1ccccc1 (stereo unspecified),208 to 210
6,COCc1nc(N)nc(N)c1-c1cc(Cl)cc(Cl)c1Cl,265 to 268
7,Nc1ccn([C@@H]2C[C@H](CO)[C@@H](O)[C@H]2O)c(=O)n1,214
8,CC(C)[C@@H](NC(=O)c1cnc(N2CCC(N3C(=O)OCc4ccccc43)CC2)c(Cl)c1)C(N)=O,140 to 143
9,CC(C)(C1OCCO1)C(O)(COc1cccc2ccccc12)Cn1ccnc1 (stereo unspecified),126
10,O=C(O)CC(Cn1cnc2c(=O)[nH]cnc21)C(=O)O (stereo unspecified),130 to 135
11,N#Cc1ccc(OC[C@H](O)CO)cc1,63 to 65
12,CC(CCCc1ccccc1)c1cc2c(cc1O)C1=C(CCCC1=O)C(C)(C)O2 (stereo unspecified),186 to 188
13,CC1(C(=O)Nc2ccc(N3CCOC3=O)c(C(F)(F)F)c2)CC1,146 to 147
14,Cc1nc2ccc(Cl)cc2nc1Cl,194 to 196
15,CCCC1C(=O)N(S(=O)(=O)c2ccc3ccccc3c2)C2CCN(S(=O)(=O)CCCN3CCOCC3)C12 (stereo unspecified),189 to 192
16,C=COC(=O)C1=Cc2cc(Cl)cc(C=C)c2OC1C(F)(F)F (stereo unspecified),75.9 to 77.2
17,CC1CC(=O)c2cc(Cl)c(F)cc2O1 (stereo unspecified),88 to 90
18,O=C(C=Cc1ccc(Cl)cc1)C(CC=Cc1ccccc1)c1ccccc1 (stereo unspecified),92 to 95
19,CN(CCCCNC(=O)NCCSCc1csc(NC(=N)N)n1)CCOC(c1ccccc1)c1ccccc1,101
20,CC(=O)n1nc(CBr)c(Oc2cc(Cl)cc(Cl)c2)c1C,111 to 113
21,O=C(Nc1ccc(C(F)(F)F)cc1)NC(Cc1ccc(C(F)(F)F)cc1)C(O)c1ccc(F)cc1 (stereo unspecified),160 to 161
22,Cc1occc1S(=O)(=O)C(C)(Cc1ccccc1)C(=O)NO (stereo unspecified),68 to 70
23,CC(=O)Nc1nc(CCN2CCC(c3c[nH]c4ccccc34)CC2)cs1,203 to 204

row,Structure (SMILES),melting point [°C]
1,Cn1c(CC#N)ccc1C(=O)c1cccc(Cl)c1,122 to 127
2,CC(C)(C)CC1(C)CC(C)(C)c2ccc(O)cc21 (stereo unspecified),102
3,CN(c1cccc2cc(C3=NCC(CC(=O)N4CCS(=O)CC4)S3)[nH]c12)S(=O)(=O)c1cccs1 (stereo unspecified),149
4,COC1(OC)CCC(O)(c2ccc(F)cc2)CC1,94 to 99
5,Oc1ccnc2ccc3nc[nH]c3c12,366 to 368
6,CNC(=O)Cc1c(-c2ccccc2)nn2cccnc12,211 to 213
7,O=C(N=CNO)c1cc2c(cn1)[nH]c1ccccc12,235 to 240
8,Nc1nc(-c2cc(Cl)nc(Cl)c2)cs1,239 to 247
9,Cc1ccc(C)n1-c1ccc(I)cc1F,68 to 70
10,Clc1nc(Cl)nc(Oc2ccccc2)n1,113 to 114
11,CC(C)(C)C(NC(=O)c1ccc(Cl)cc1)NC(=NC#N)NCc1ccccc1Cl (stereo unspecified),180 to 182
12,Cc1nc(N2CCc3ccccc3CC2)c(C#N)c(=O)n1NC(C)C,142 to 146
13,Cc1cccc(NC(=O)NCC(=O)N2C(Cc3ccccc3)SC[C@H]2C(=O)OC(C)(C)C)c1 (stereo partly specified),104
14,O=c1[nH]c2cc(F)c(F)cc2n2ccnc12,> 300
15,COc1ccc(NC(=O)C(F)(F)F)cc1C12CC3CC(CC(C3)C1)C2,166 to 167
16,N#CC1(N2C(=O)C3=C(CCCC3)C2=O)CCCCC1,55.5 to 56.5
17,CCCN(CCC)Cc1nnc(-c2ncn3c2CN(C)C(=O)c2c-3ccc(F)c2Cl)o1,128 to 130
18,CCCCCCCCCCCC(=O)N1CCN(CCO)CC1,38 to 40
19,NCCOc1cc(Cl)cc([N+](=O)[O-])c1N,156 to 157
20,Nc1ccc(Nc2c(NCc3ccccc3)cc(C(=O)O)cc2S(N)(=O)=O)cc1,244
21,O=C1NC(=O)C(c2ccc(-c3ccccc3)o2)O1 (stereo unspecified),216 to 218
22,N#Cc1ccc(NC2CCN(Cc3cccc(C(F)(F)F)c3)CC2)nn1,170

# Results, then the compound that gave them:
row,melting point [°C],Structure (SMILES)
1,128 to 129,Cc1oc(COc2ccccc2/C=C/C=C/C#N)nc1-c1ccccc1
2,208 to 210,CS(=O)(=O)c1ccc(-c2cnn(-c3cccc(Br)c3)c(=O)c2Oc2ccc(F)cc2)cc1
3,158 to 160,CC(C)(C)c1cc(-c2nn(CCC#N)c3ncccc23)cc(C(C)(C)C)c1O
4,127 to 130,COC(=O)c1cscc1NC(=O)COc1ccc(-c2ccc(F)cc2)cc1
5,120 to 122,CN1CCN(C(=O)[C@H](CCC(N)=O)NC(=O)CCc2ccc(OCc3ccccc3)cc2OCc2ccccc2)CC1
6,175 to 178,Cc1ccc(S(=O)(=O)OCC2Cc3c[nH]c4cccc(c34)C(=O)N2)cc1 (stereo unspecified)
7,124,COC(=O)c1ccc(Sc2ccccc2)cc1Sc1ccccc1
8,228 to 231,COC(=O)c1cnn(C)c1C(=O)Nc1ccn2nc(-c3cccnc3)nc2c1
9,156 to 158,COc1ccc(S(=O)(=O)N2c3ccccc3-c3ccccc3C2C(C)(C)C)cc1 (stereo unspecified)
10,169 to 173,COc1ccc(Nc2nc(Cl)nc(NCCO)n2)cc1
11,223 to 224,Nc1nnc(-c2ccc3occ(-c4ccc(OC(F)(F)F)cc4)c3c2)o1
12,184 to 185,O=C(O)c1ccc(OCc2ccccc2)c(OCc2ccccc2)c1
13,160 to 161,CC(C)C(=O)n1cc(-c2ccc(Oc3ccccc3)cc2)c2c(N)ncnc21
14,246 to 247,COc1ccn2nc(-c3ccccc3)c(-c3ccc(=O)[nH]n3)c2c1
15,116 to 117,Cc1cc(SC(C)C)c(NC(=O)CCCSc2nc3ccccc3s2)c(SC(C)C)n1
16,122 to 124,COc1ccc(C(O)(c2ccccc2)c2ccc(OC)cc2)cc1
17,169 to 170,CSc1ccc(C(=O)Nc2ccccc2)cc1Nc1cccc(C(F)(F)F)c1
18,148 to 149,O=C(O)Cc1ccc(OCCC(c2ccccc2)(c2ccccc2)c2ccccc2)cc1
19,108 to 109,Cc1nc(-c2cccc(Cn3ccc4nc(C(C)C)n(Cc5ccc6ccc(-c7noc(C)n7)cc6c5)c4c3=O)c2)no1
20,238 to 240,Cc1ccc(-c2[nH]c3ccc(Cl)cc3c2-c2ccc(S(C)(=O)=O)cc2)cc1
21,150 to 151,COC(=O)OC(C)OC1=C(C(=O)Nc2ccccn2)N(C)S(=O)(=O)c2ccccc21 (stereo unspecified)
22,165 to 166,Cc1c(C(=O)OCc2ccccc2)sc(NC(=O)c2cccnc2)c1C(=O)OC(C)(C)C
23,241 to 243,Cn1c(=O)c(Oc2ccccc2F)cc2cnc(N)nc21
24,110 to 114,CS(=O)(=O)c1ccc(-c2cnn(-c3cccc(Cl)c3)c(=O)c2Sc2ccccn2)cc1
25,161 to 162,COCOc1cc(F)ccc1-c1cc(-c2cccc([N+](=O)[O-])c2)c(C#N)c(NC(=O)c2ccno2)n1
26,122 to 123,CCOc1nn(-c2ccc(C(F)(F)F)cn2)cc1CCCOc1c(CC(=O)O)cccc1OC

row,melting point [°C],Structure (SMILES)
1,216 to 217,Fc1ccc(-c2n[nH]cc2-c2ccnc(NCc3ccccc3)n2)cc1
2,105 to 107,CCOC(=O)C(Cc1ccc(OCCn2c(=O)sc3cc(C(=NO)C4CC4)ccc32)cc1)OCC(F)(F)F (stereo unspecified)
3,195,CCOC(=O)c1c(N2CCN(C(=O)c3cccs3)CC2)c2c(C)csc2n(Cc2ccccc2)c1=O
4,77 to 79,OCCOc1ccc(C(=S)c2ccc(-c3ccccc3)cc2)c(O)c1
5,246 to 248,COc1cc(C(=O)NS(=O)(=O)c2ccccc2)ccc1Cn1nc(OC)c2ccc(NC(=O)OC3CCCC3)cc21
6,64 to 68,CNCCOC(=O)[C@@H](C)c1ccc2cc(OC)ccc2c1
7,154 to 157,Cc1ccc(S(=O)(=O)N(CC(=O)N(C)C)c2ccc(Cl)cc2C(=O)c2ccccc2Cl)cc1
8,142 to 143,CCNc1cccc(-c2ccnc3c(C(=O)c4ccco4)cnn23)c1
9,109 to 112,CCc1nc2c(cnn2CC)c(NC2CCOCC2)c1CNC(=O)c1cc(C)cc(C(=O)NCc2cccc(-c3cccc(C=O)c3)c2)c1
10,233 to 235,Cc1ccc2c(O)ccnc2c1
11,242 to 245,CC(C)(C)c1ccc(C(=O)Nc2cn3cc(-n4ccnc4)ccc3n2)cn1
12,111 to 112,CC(=O)Nc1ccc2c(c1)NC(=O)C(CCCN1CCN(c3ccc(F)cc3)CC1)O2 (stereo unspecified)
13,286 to 288,Cc1cc(C)n2nc(S(=O)(=O)Nc3c(Cl)ccc(C)c3Cl)nc2n1
14,180 to 182,CCn1c2ccccc2c2cc(C(C#N)=C(C#N)c3cc(C(F)(F)F)cc(C(F)(F)F)c3)ccc21
15,157 to 158,CCCc1cn(C)c2c(=O)[nH]c(-c3cc(S(=O)(=O)N4CCN(CCCOC(C)=O)CC4)ccc3OCC)nc12
16,88 to 90,COc1ccc(/C(C)=C/c2ccc(CO)cc2)cc1C(C)(C)C
17,171 to 173,O=C(O)CCCCCOc1c(Cl)cc(NC(=O)NC(=O)c2ccccc2Cl)cc1Cl
18,196 to 198,CCCNC(=O)Nc1ccc(SC)cc1C(=O)NCC1CCN(C(c2ccccc2)c2ccccc2)CC1
19,174 to 176,COCc1cnc2c(NC(=O)c3c(Cl)cccc3Cl)cccc2c1OCc1cccnc1
20,213 to 215,Cc1ccc(-c2cc(-c3ccc(F)cc3)c(C(=O)NCc3ccc(C(=O)NO)cc3)[nH]2)cc1
21,134 to 135,CCOC(=O)c1cc(-n2c(-c3ccccc3)cc3c2CCc2ccccc2-3)ccc1O
22,193 to 195,Cc1cc(-c2nc3ccccc3s2)ccc1N
23,150,CC(=O)O[C@@H]1CN2C(=O)N(c3cc(Cl)cc(Cl)c3)C(=O)[C@]2(Cc2ccc(Br)cc2)C1
24,152 to 154,CCC(C)c1ccc(-n2c(-c3cc(C)c(OCCO)c(C)c3)nc3ccc(OC)cc3c2=O)cc1 (stereo unspecified)
25,128 to 130,Cc1ccc(C2c3c(C)c(Br)c(C)c(C=O)c3OC2(C)C)cc1 (stereo unspecified)

# — a melting point compilation (Tetko et al.; mined from patent text by program, amines drawn as free bases though some values may be those of a salt)
